Test results: PMC10349806 (Nature Communications, 2023)
Residue numbers refer to the chain shown, from its start. Where “and” joins values, the source holds several entries; their conditions need not be identical. Equal values may be shown once.

Columns and labels:
[1] = biological target: T1, PfCRT variant E198A (Plasmodium falciparum, UniProt Q9N623, A220S/E198A/I356T/K76T/M74I/N326S/N75E/Q271E/R371I); assay: CQ uptake assay, oocytes expressing E198A; type: cell-based
T1 sequence (Q9N623 1-424 M74I/N75E/K76T/E198A/A220S/Q271E/N326S/I356T/R371I): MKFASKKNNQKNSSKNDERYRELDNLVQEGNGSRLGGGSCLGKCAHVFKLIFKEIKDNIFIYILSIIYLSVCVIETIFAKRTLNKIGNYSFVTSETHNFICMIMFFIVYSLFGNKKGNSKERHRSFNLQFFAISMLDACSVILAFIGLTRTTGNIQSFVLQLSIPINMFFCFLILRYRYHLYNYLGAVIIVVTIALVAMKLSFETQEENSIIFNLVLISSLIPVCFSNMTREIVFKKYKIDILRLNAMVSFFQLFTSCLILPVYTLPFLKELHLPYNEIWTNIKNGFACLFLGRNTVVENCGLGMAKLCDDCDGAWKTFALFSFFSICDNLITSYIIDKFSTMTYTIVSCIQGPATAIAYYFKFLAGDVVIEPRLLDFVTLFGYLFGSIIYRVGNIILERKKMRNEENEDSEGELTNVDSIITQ
Protocol: (§1) Site-directed mutagenesis of PfCRT^Dd2 was performed as described using the megaprimer method with overlap extension[21],[54]. The primer pairs used are listed in Supplementary Table 6. Please note that a codon-optimized and oocyte-adapted version of PfCRT^Dd2 was used[22] (Supplementary Fig. 16). The resulting DNA fragment was cloned into the SP64T expression vector and verified by sequencing.
(§2) Oocytes were obtained as described previously. Briefly, adult (>2 years old) female X. laevis frogs (NASCO) were anesthetized in a cooled solution of ethyl 3-amino benzoate methanesulfonate (0.1%, w/v), followed by a surgical removal of parts of the ovary. The ovary lobes were carefully dissected and small pieces of oocytes were incubated in Ca^2+-free ND96 buffer (96 mM NaCl, 2 mM KCl, 1 mM MgCl2 buffered with 5 mM HEPES/NaOH, pH 7.5) supplemented with collagenase D (0.1%, w/v; Roche), BSA (0.5%, w/v), and 9 mm Na2HPO4 at 18 °C for 14-16 h while gentle shaking. After incubation, the oocytes were carefully washed several times with ND96 buffer (96 mM NaCl, 2 mM KCl, 1.8 mM CaCl2, 1 mM MgCl2 buffered with 5 mM HEPES/NaOH, pH 7.5) supplemented with 100 mg l^−1 gentamycin). Defolliculated and healthy-looking stage V-VI oocytes were manually selected for RNA microinjection. The RNA was generated as following: The codon-optimized sequences of PfCRT variants were cloned into the pSP64T expression vector. After vector linearization using the restriction endonucleases BamHI or SalI (New England Biolabs), transcription was performed using the in vitro SP6 mMessage mMachine Kit (Ambion)[34]. The obtained RNA was kept at −80 °C and diluted with nuclease-free water to a concentration of 0.6 μg μl^−1. Precision-bore glass capillary tubes (3.5-inch glass capillaries; Drummond Scientific Co.) were pulled on a vertical puller (P-87 Flaming/Brown micropipette puller, Sutter Instrument Co.), graduated, and placed on a microinjector (Nanoject II Auto-Nanoliter Injector, Drummond Scientific Co.). 50 nl of nuclease-free water alone (control oocytes) or 50 nl of 0.6 μg μl^−1 RNA were injected under stereomicroscopic control. Injected oocytes were incubated for 46–72 h at 18 °C with twice-daily buffer changes before usage in experiments.
Drug uptake assays were performed as described previously[21],[22],[24],[34]. […] The direction of radio-labeled drug transport is here from the mostly acidic extracellular solution (pH 4.5 or 6.0, as indicated) into the oocyte cytosol (pH ∼ 7.2), which corresponds to the efflux of drug from the acidic digestive vacuole (pH 5.2) into the parasite cytoplasm (pH 7.2). The topology of PfCRT in the oolemma is such that both the N- and C-terminus face the extracellular milieu[3],[22]. In the parasite, the N- and C-terminus face the lumen of the digestive vacuole. CQ uptake kinetics were performed by incubating oocytes in ND96 buffer adjusted to a pH of 4.5, 5.0, 5.5, or 6.0 and supplemented with 50 nM [^3H]CQ and one of 7 different CQ concentrations (10 µM, 50 µM, 100 µM, 200 µM, 300 µM, 400 µM, 500 µM CQ). The reaction was stopped at the 60 min time point, which is in the linear uptake range[22],[34] (Supplementary Fig. 17). […] The radioactivity of each sample was measured using a liquid scintillation analyzer Tri-Carb 4910 TR (PerkinElmer). Oocytes that were injected with water instead of RNA were analyzed in parallel, representing the uptake of a drug by diffusion and/or endogenous permeation pathways. […]

[2] = biological target: T2, PfCRT variant D338A (Plasmodium falciparum, UniProt Q9N623, A220S/D338A/I356T/K76T/M74I/N326S/N75E/Q271E/R371I); assay: CQ uptake assay, oocytes expressing D338A; type: cell-based
T2 sequence (Q9N623 1-424 M74I/N75E/K76T/A220S/Q271E/N326S/D338A/I356T/R371I): T1 sequence (Q9N623 1-424 M74I/N75E/K76T/E198A/A220S/Q271E/N326S/I356T/R371I) with A198E, D338A
Protocol: as §1, §2
(§3) Drug uptake assays were performed as described previously[21],[22],[24],[34]. […] The direction of radio-labeled drug transport is here from the mostly acidic extracellular solution (pH 4.5 or 6.0, as indicated) into the oocyte cytosol (pH ∼ 7.2), which corresponds to the efflux of drug from the acidic digestive vacuole (pH 5.2) into the parasite cytoplasm (pH 7.2). The topology of PfCRT in the oolemma is such that both the N- and C-terminus face the extracellular milieu[3],[22]. In the parasite, the N- and C-terminus face the lumen of the digestive vacuole. CQ uptake kinetics were performed by incubating oocytes in ND96 buffer adjusted to a pH of 4.5, 5.0, 5.5, or 6.0 and supplemented with 50 nM [^3H]CQ and one of 7 different CQ concentrations (10 µM, 50 µM, 100 µM, 200 µM, 300 µM, 400 µM, 500 µM CQ). The reaction was stopped at the 60 min time point, which is in the linear uptake range[22],[34] (Supplementary Fig. 17). For determination of the amount of drug uptake for each oocyte, the reaction medium was removed and the oocytes were washed three times with 2 ml of ice-cold ND96 buffer. Each oocyte was individually transferred to a scintillation vial containing 5% sodium dodecyl sulfate (200 μl) for lysis. The radioactivity of each sample was measured using a liquid scintillation analyzer Tri-Carb 4910 TR (PerkinElmer). Oocytes that were injected with water instead of RNA were analyzed in parallel, representing the uptake of a drug by diffusion and/or endogenous permeation pathways. The resulting value represents the “background“ level of drug accumulation in oocytes (in-depth discussion in[22]). […]

[3] = test system: PfCRT variant E207M; assay: CQ uptake assay, oocytes expressing E207M; type: cell-based, Plasmodium falciparum
Protocol: as §1, §2, §3

[4] = E198A, 50 µM CQ, 1 h, mean ± SEM
[5] = pH 4.5, single replicates, Fig 1d left
[6] = pH 6.0, single replicates, Fig 1d left
[7] = D338A, 50 µM CQ, 1 h, mean ± SEM
[8] = E207M, 50 µM CQ, 1 h, mean ± SEM

SMILES: CCN(CC)CCCC(C)Nc1ccnc2cc(Cl)ccc12 (centres unmarked) [CQ, chloroquine]
- Activity at pH 4.5 [1, 4]: 1.23 ± 0.15 pmol h-1 oocyte-1
- Activity at pH 6.0 [1, 4]: 3.10 ± 0.44 pmol h-1 oocyte-1
- R-value ([1]; E198A, CQ transport at pH 4.5 / pH 6.0): 0.44 ± 0.11
- E198A transport activity pH 4.5 [1, 5]: 1.49 pmol oocyte-1 h-1 and 1.34 pmol oocyte-1 h-1 and 0.87 pmol oocyte-1 h-1
- E198A transport activity pH 6.0 [1, 6]: 2.08 pmol oocyte-1 h-1 and 3.94 pmol oocyte-1 h-1 and 3.27 pmol oocyte-1 h-1
- Activity at pH 4.5 [2, 7]: 2.35 ± 0.19 pmol h-1 oocyte-1
- Activity at pH 6.0 [2, 7]: 5.20 ± 0.52 pmol h-1 oocyte-1
- R-value ([2]; D338A, CQ transport at pH 4.5 / pH 6.0): 0.47 ± 0.06
- D338A transport activity pH 4.5 [2, 5]: 2.81 pmol oocyte-1 h-1 and 2.11 pmol oocyte-1 h-1 and 2.14 pmol oocyte-1 h-1
- D338A R-value ([2]; pH 4.5 vs pH 6.0, Fig 1d left): 0.58 and 0.33 and 0.49
- D338A transport activity pH 6.0 [2, 6]: 4.85 pmol oocyte-1 h-1 and 6.43 pmol oocyte-1 h-1 and 4.33 pmol oocyte-1 h-1
- Activity at pH 4.5 [3, 8]: 1.85 ± 0.27 pmol h-1 oocyte-1
- Activity at pH 6.0 [3, 8]: 2.24 ± 0.41 pmol h-1 oocyte-1
- R-value ([3]; E207M, CQ transport at pH 4.5 / pH 6.0): 0.85 ± 0.02
- E207M transport activity pH 4.5 ([3]; pH 4.5, individual replicates, Fig 6b): 1.39 pmol oocyte-1 h-1 and 1.26 pmol oocyte-1 h-1 and 2.26 pmol oocyte-1 h-1 and 2.48 pmol oocyte-1 h-1
- E207M transport activity pH 6.0 ([3]; pH 6.0, individual replicates, Fig 6b): 1.61 pmol oocyte-1 h-1 and 1.40 pmol oocyte-1 h-1 and 2.48 pmol oocyte-1 h-1 and 3.48 pmol oocyte-1 h-1
- E207M R-value ([3]; ratio of activity pH 4.5 / pH 6.0): 0.86 and 0.90 and 0.91 and 0.71
